Measured values: patent publication US9388175B2, “2-aniline-4-aryl substituted thiazole derivatives” (Janssen Pharmaceutica N.V., priority 2005, dated 2016)

The compounds below were run against T1, hα7-wt nAChR stably expressed in the GH4C1 cell line (Homo sapiens, UniProt P36544) (assay: Ca2+ flux imaging (FLIPR) of PAM activity with choline as agonist). Details: efficacy relative to 100 μM choline alone (defined as 1); peak fluorescence, fluo-4AM; compounds tested 0.1 μM to 30 μM, efficacy criterion at 10 μM.
T1 construct: expressed in transfected cells
T1 sequence (P36544 23-502): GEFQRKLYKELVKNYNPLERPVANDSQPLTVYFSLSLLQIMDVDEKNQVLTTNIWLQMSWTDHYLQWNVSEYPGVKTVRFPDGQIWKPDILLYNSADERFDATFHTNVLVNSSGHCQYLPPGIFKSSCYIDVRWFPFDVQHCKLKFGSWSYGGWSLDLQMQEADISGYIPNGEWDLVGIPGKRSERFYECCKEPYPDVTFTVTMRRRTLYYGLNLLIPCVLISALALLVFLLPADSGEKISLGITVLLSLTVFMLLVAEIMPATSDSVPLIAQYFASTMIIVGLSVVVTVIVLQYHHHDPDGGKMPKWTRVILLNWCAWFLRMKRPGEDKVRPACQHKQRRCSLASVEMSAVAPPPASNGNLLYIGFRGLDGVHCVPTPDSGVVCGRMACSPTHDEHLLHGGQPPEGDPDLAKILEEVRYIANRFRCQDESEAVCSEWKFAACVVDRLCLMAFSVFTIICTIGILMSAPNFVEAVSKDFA
Type: cell-based
Source text: Stable expression in mammalian cells in general and rat GH4C1 cells in particular, of cDNA clones encoding the human α7 wild-type sequence (hα7-wt nAChR) and in which the coding region is placed downstream of a promoter results in the appearance of functional α7 nAChRs on the surface of the mammalian cells. This technique has provided a powerful means of assessing the function of α7 wild-type protein. Given the fact that the cation permeability of the α7 nicotinic receptor preferentially favours calcium, fluorescent imaging of Ca^2+ flux through the hα7-wt nAChR stably expressed in the GH4C1 cell line was used as a first means of assaying modulator activity of the compounds of the present invention.
a) Assay Buffer • Hanks buffered saline solution (HBSS, Invitrogen, Belgium), supplemented with 10 mM HEPES (Invitrogen, Belgium), CaCl2 to a final concentration of 5 mM, 0.1% Bovine serum albumin (Sigma-Aldrich NV, Belgium), 2.5 mM probenecid (Sigma-Aldrich NV, Belgium).
b) Calcium-Sensitive Dye—Fluo-4AM • Fluo-4AM (Molecular Probes, USA) was dissolved in DMSO containing 10% Pluronic acid (Molecular Probes, USA) to give a stock solution which was aliquoted and could be stored at −20° C. until later use. On the day of the experiment Fluo-4AM stock was defrosted and diluted in DMEM/F12 (Invitrogen, Belgium) containing 2.5 mM probenicid and 0.1% BSA to give a final concentration of 2 μM.
c) 96-well Plates • BD Biocoat poly-D-lysine 96-well black/clear bottom plates (BD Biosciences, Belgium)
d) Calcium Flux Measurement • A Fluorimetric Imaging Plate Reader (FLIPR, Molecular Devices Corporation, Sunnyvale, USA) was used to measure intracellular free-calcium flux signals
Monolayers of hα7-wt nAChR-expressing cells were grown in multi-well plates, in particular black-sided, transparent bottomed 96 well plates coated with poly-D-lysine for 24 hours prior to loading with a fluorescent calcium indicator, in a particular embodiment loading with fluo-3 or fluo-4AM for up to 90 minutes, in an even more particular embodiment loading with fluo-4AM for up to 90 minutes, and in a preferred embodiment loading with fluo-4AM for 60 minutes.
In a particular embodiment, the α7 nicotinic receptor agonist was choline, a more particular embodiment choline applied at a sub-maximal concentration of 100 μM.
A control response to choline was calculated on each plate from the difference in peak fluorescence in wells receiving either choline or assay buffer alone. Compounds of the present invention were tested at a concentration range from 0.1 μM to 30 μM.
The activity ranges are defined as follows; A denotes an activity range from 1.1 till 1.5, B denotes an activity range from 1.5 till 2.0, C denotes an activity range from 2.0 till 3.0, D denotes an activity range from 3.0 till 4.5 and E denotes an efficacy from at least 4.5.
With `N#CCc1sc(Nc2cccc(C(F)(F)F)c2)nc1-c1ccc(Cl)cc1Cl` [Compound 23, [4-(2,4-Dichloro-phenyl)-2-(3-trifluoromethyl-phenylamino)-thiazol-5-yl]-acetonitrile] the “Activity Range” value was “D (D denotes an activity range from 3.0 till 4.5)”.
In the case of `COc1cc(OC)c(Nc2nc(-c3ccncc3)c(CN3CCCC3)s2)cc1Cl` [Compound 99], the “Activity Range” value is reported as “D (D denotes an activity range from 3.0 till 4.5)”.
For `Fc1cccc(-c2csc(Nc3cccc(C(F)(F)F)c3)n2)c1` [int. 12], the “Activity Range” value was “C (C denotes an activity range from 2.0 till 3.0)”.
`CCOC(=O)c1sc(Nc2cccc(C(F)(F)F)c2)nc1C1CCCN(C(=O)OCc2ccccc2)C1` (stereo not shown) [Compound 160] was tested, and the “Activity Range” value was “E (E denotes an efficacy from at least 4.5)”.
For `CCOC(=O)c1sc(Nc2cccc(C(F)(F)F)c2)nc1C(F)(F)F` [Compound 147], the “Activity Range” value was “E (E denotes an efficacy from at least 4.5)”.
In the case of `CC(=O)NCc1sc(Nc2ccc(F)c(C(F)(F)F)c2)nc1-c1cccnc1` [Compound 32], the “Activity Range” value is reported as “C (C denotes an activity range from 2.0 till 3.0)”.
For `Cc1ccc(-c2nc(Nc3cccc(C(F)(F)F)c3)sc2CO)cn1` [Compound 129], the “Activity Range” value was “E (E denotes an efficacy from at least 4.5)”.
With `Cc1sc(Nc2ccc(C(F)(F)F)cc2)nc1-c1cccnc1` [Compound 87] the “Activity Range” value was “C (C denotes an activity range from 2.0 till 3.0)”.
In the case of `COc1cc(OC)c(Nc2nc(-c3ccc4c(c3)OCCO4)c(CO)s2)cc1Cl` [int. 19, 2-[(5-chloro-2,4-dimethoxyphenyl)amino]-4-(2,3-dihydro-1,4-benzodioxin-6-yl)-5-thiazolemethanol], the “Activity Range” value is reported as “E (E denotes an efficacy from at least 4.5)”.
`CNC(=O)Cc1sc(Nc2cc(Cl)c(OC)cc2OC)nc1-c1ccc2c(c1)OCCO2` [Compound 97, 2-[(5-chloro-2,4-dimethoxyphenyl)amino]-4-(2,3-dihydro-1,4-benzodioxin-6-yl)-N-methyl-5-thiazoleacetamide] was tested, and the “Activity Range” value was “E (E denotes an efficacy from at least 4.5)”.
With `CNC(=O)CCc1sc(Nc2ccc(OC)cc2)nc1-c1ccnc(Cl)c1` [Compound 111] the “Activity Range” value was “E (E denotes an efficacy from at least 4.5)”.
`CCOC(=O)c1sc(Nc2cccc(C(F)(F)F)c2)nc1C` [Compound 143] was tested, and the “Activity Range” value was “E (E denotes an efficacy from at least 4.5)”.
`Fc1ccc(Nc2nc(-c3cnc4sccn34)cs2)cc1C(F)(F)F` [Compound 44] was tested, and the “Activity Range” value was “C (C denotes an activity range from 2.0 till 3.0)”.
With `Clc1ccc(Nc2nc(-c3cnc4cnccn34)cs2)cc1` [Compound 75] the “Activity Range” value was “C (C denotes an activity range from 2.0 till 3.0)”.
For `CNC(=O)c1sc(Nc2cc(Cl)c(OC)cc2OC)nc1-c1ccc(F)c(F)c1` [Compound 107, 2-[(5-chloro-2,4-dimethoxyphenyl)amino]-4-(3,4-difluorophenyl)-N-methyl-5-thiazolecarboxamide], the “Activity Range” value was “E (E denotes an efficacy from at least 4.5)”.
With `Fc1ccc(Nc2nc(-c3cnc4ccccn34)cs2)cc1C(F)(F)F` [Compound 9] the “Activity Range” value was “C (C denotes an activity range from 2.0 till 3.0)”.
For `Cc1sc(Nc2cccc(C(F)(F)F)c2)nc1-c1cccnc1` [Compound 101], the “Activity Range” value was “D (D denotes an activity range from 3.0 till 4.5)”.
In the case of `Brc1ccc(Nc2nc(-c3cnc4ccccn34)cs2)cc1` [Compound 58], the “Activity Range” value is reported as “C (C denotes an activity range from 2.0 till 3.0)”.
With `Cc1ccccc1Nc1nc(-c2ccccc2)c(C(=O)Nc2cccnc2)s1` [Compound 172, 5-Thiazolecarboxamide, 2-[(2-methylphenyl)amino]-4-phenyl-N-3-pyridinyl-] the “Activity Range” value was “E (E denotes an efficacy from at least 4.5)”.
In the case of `CNC(=O)Cc1sc(Nc2cc(Cl)c(OC)cc2OC)nc1-c1ccc(F)c(F)c1` [Compound 134], the “Activity Range” value is reported as “E (E denotes an efficacy from at least 4.5)”.
With `COCc1nc(Nc2cc(Cl)ccc2Cl)sc1C(=O)OC` [Compound 140] the “Activity Range” value was “E (E denotes an efficacy from at least 4.5)”.
For `O=C(Nc1cccnc1)c1sc(Nc2ccccc2)nc1-c1ccccc1` [Compound 171, 5-Thiazolecarboxamide, 4-phenyl-2-(phenylamino)-N-3-pyridinyl-], the “Activity Range” value was “E (E denotes an efficacy from at least 4.5)”.
In the case of `Clc1ccc(Nc2nc(-c3ccccc3Cl)cs2)c(Cl)c1` [Compound 37], the “Activity Range” value is reported as “C (C denotes an activity range from 2.0 till 3.0)”.
`FC(F)(F)c1cccc(Nc2nc(-c3ccoc3)cs2)c1` [Compound 74] was tested, and the “Activity Range” value was “B (B denotes an activity range from 1.5 till 2.0)”.
`COc1ccccc1Nc1nc(-c2ccccc2Cl)cs1` [Compound 42] was tested, and the “Activity Range” value was “B (B denotes an activity range from 1.5 till 2.0)”.
With `CSc1ccc(Nc2nc(-c3cnc4ccccn34)cs2)cn1` [Compound 49] the “Activity Range” value was “E (E denotes an efficacy from at least 4.5)”.
In the case of `COc1ccc(Nc2nc(-c3ccc4c(c3)OCCO4)c(CO)s2)c(OC)c1` [Compound 95, 4-(2,3-dihydro-1,4-benzodioxin-6-yl)-2-[(2,4-dimethoxyphenyl)amino]-5-thiazolemethanol], the “Activity Range” value is reported as “E (E denotes an efficacy from at least 4.5)”.
In the case of `CCOC(=O)c1sc(Nc2ccc(Cl)cc2Cl)nc1-c1ccccc1` [int. 6, 2-(2,4-Dichloro-phenylamino)-4-phenyl-thiazole-5-carboxylic acid ethyl ester], the “Activity Range” value is reported as “E (E denotes an efficacy from at least 4.5)”.
For `Cc1cncc(-c2csc(Nc3cccc(Cl)c3Cl)n2)c1` [Compound 67], the “Activity Range” value was “C (C denotes an activity range from 2.0 till 3.0)”.
With `Cc1cccc(Nc2nc(-c3cnc4ccccn34)cs2)c1` [Compound 51] the “Activity Range” value was “C (C denotes an activity range from 2.0 till 3.0)”.
In the case of `FC(F)(F)c1ccc(Nc2nc(-c3cccnc3)cs2)cn1` [Compound 65], the “Activity Range” value is reported as “C (C denotes an activity range from 2.0 till 3.0)”.
`COc1cc(OC)c(Nc2nc(-c3ccc4c(c3)OCCO4)c(CC(N)=O)s2)cc1Cl` [Compound 96, 2-[(5-chloro-2,4-dimethoxyphenyl)amino]-4-(2,3-dihydro-1,4-benzodioxin-6-yl)-5-thiazoleacetamide] was tested, and the “Activity Range” value was “E (E denotes an efficacy from at least 4.5)”.
In the case of `COC(=O)CCc1sc(Nc2ccc(OC)cc2)nc1-c1ccc(OC)cc1` [Compound 173, 5-Thiazolepropanoic acid, 4-(4-methoxyphenyl)-2-[(4-methoxyphenyl)amino]-, methyl ester], the “Activity Range” value is reported as “D (D denotes an activity range from 3.0 till 4.5)”.
In the case of `COc1ccc(-c2csc(Nc3cccc(Cl)c3Cl)n2)c(OC)c1` [Compound 8], the “Activity Range” value is reported as “C (C denotes an activity range from 2.0 till 3.0)”.
`Clc1cccc(Nc2nc(-c3cnc4sccn34)cs2)c1` [Compound 61] was tested, and the “Activity Range” value was “C (C denotes an activity range from 2.0 till 3.0)”.
With `c1ccn2c(-c3csc(Nc4ccc5c(c4)CCO5)n3)cnc2c1` [Compound 46] the “Activity Range” value was “C (C denotes an activity range from 2.0 till 3.0)”.
`COc1ccc(Nc2nc(-c3cnc4ccccn34)cs2)c(OC)c1` [Compound 50] was tested, and the “Activity Range” value was “D (D denotes an activity range from 3.0 till 4.5)”.
With `CCOC(=O)c1sc(Nc2cc(Cl)ccc2Cl)nc1C(F)F` [Compound 153] the “Activity Range” value was “E (E denotes an efficacy from at least 4.5)”.
For `COc1ccc(-c2csc(Nc3ccc(Cl)cc3Cl)n2)c(OC)c1` [Compound 41], the “Activity Range” value was “A (A denotes an activity range from 1.1 till 1.5)”.
`O=C(Cc1sc(Nc2cc(Cl)ccc2Cl)nc1-c1ccncc1)N1CCCC1` [Compound 162] was tested, and the “Activity Range” value was “E (E denotes an efficacy from at least 4.5)”.
`Cc1ccc(Nc2nc(-c3cccnc3)c(C)s2)cc1` [Compound 138] was tested, and the “Activity Range” value was “E (E denotes an efficacy from at least 4.5)”.
In the case of `CCOC(=O)c1sc(Nc2ccc(OC)cc2)nc1C` [Compound 144], the “Activity Range” value is reported as “E (E denotes an efficacy from at least 4.5)”.
With `FC(F)(F)c1cccc(Nc2nc(-c3ccccc3)cs2)c1` [int. 1] the “Activity Range” value was “C (C denotes an activity range from 2.0 till 3.0)”.
With `CCOC(=O)c1sc(Nc2cccc(C(F)(F)F)c2)nc1C1CC1` [Compound 145] the “Activity Range” value was “E (E denotes an efficacy from at least 4.5)”.
In the case of `CNC(=O)c1sc(Nc2cc(Cl)c(OC)cc2OC)nc1-c1ccncc1` [Compound 105], the “Activity Range” value is reported as “E (E denotes an efficacy from at least 4.5)”.
`COc1cc(OC)c(Nc2nc(-c3ccc(F)c(F)c3)c(CC(N)=O)s2)cc1Cl` [Compound 130] was tested, and the “Activity Range” value was “E (E denotes an efficacy from at least 4.5)”.
